Laboratory results as given in PubChem BioAssay (NCI).
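Test compounds were applied to cells in 96-well plates for 48 hours at 5 doses. At the TGI there is no net growth.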

Key:
Assay in all cases: growth of human tumour cells (NCI), 48 h
EKVX NSCLC = system: EKVX NSCLC
NCI/ADR-RES ovarian = system: NCI/ADR-RES ovarian
IGROV1 ovarian = system: IGROV1 ovarian
U251 CNS = system: U251 CNS
UACC-257 melanoma = system: UACC-257 melanoma
MDA-MB-435 = system: MDA-MB-435
SK-MEL-5 melanoma = system: SK-MEL-5 melanoma
OVCAR-5 ovarian = system: OVCAR-5 ovarian
A498 renal = system: A498 renal
UO-31 renal = system: UO-31 renal
SW-620 colon = system: SW-620 colon
MDA-N = system: MDA-N
HOP-62 NSCLC = system: HOP-62 NSCLC
NCI-H460 lung = system: NCI-H460 lung
COLO 205 colon = system: COLO 205 colon
MOLT-4 leukemia = system: MOLT-4 leukemia
DU-145 prostate = system: DU-145 prostate
T-47D breast = system: T-47D breast
CCRF-CEM leukemia = system: CCRF-CEM leukemia
CAKI-1 renal = system: CAKI-1 renal
SF-295 CNS = system: SF-295 CNS
MALME-3M melanoma = system: MALME-3M melanoma
KM12 colon = system: KM12 colon
K-562 leukemia = system: K-562 leukemia
ACHN renal = system: ACHN renal
OVCAR-3 ovarian = system: OVCAR-3 ovarian
786-0 renal = system: 786-0 renal
UACC-62 melanoma = system: UACC-62 melanoma
NCI-H522 lung = system: NCI-H522 lung
MCF7 breast = system: MCF7 breast
SF-539 CNS = system: SF-539 CNS
OVCAR-4 ovarian = system: OVCAR-4 ovarian
SNB-75 CNS = system: SNB-75 CNS
SK-OV-3 ovarian = system: SK-OV-3 ovarian
SF-268 CNS = system: SF-268 CNS
NCI-H226 lung = system: NCI-H226 lung
SNB-19 CNS = system: SNB-19 CNS
HT29 colon = system: HT29 colon
OVCAR-8 ovarian = system: OVCAR-8 ovarian
HCT-15 colon = system: HCT-15 colon
A549 NSCLC = system: A549 NSCLC
RXF 393 renal = system: RXF 393 renal
SN12C renal = system: SN12C renal
HCT-116 colon = system: HCT-116 colon
BT-549 breast = system: BT-549 breast
HS 578T breast = system: HS 578T breast
MDA-MB-231 breast = system: MDA-MB-231 breast
PC-3 prostate = system: PC-3 prostate
SK-MEL-28 melanoma = system: SK-MEL-28 melanoma
TK-10 renal = system: TK-10 renal
HCC-2998 colon = system: HCC-2998 colon
SK-MEL-2 melanoma = system: SK-MEL-2 melanoma
NCI-H23 lung = system: NCI-H23 lung
M14 melanoma = system: M14 melanoma
RPMI-8226 leukemia = system: RPMI-8226 leukemia
LOX IMVI melanoma = system: LOX IMVI melanoma
HOP-92 NSCLC = system: HOP-92 NSCLC
HL-60(TB) leukemia = system: HL-60(TB) leukemia

Measured: TGI

COC(=O)[C@@]1(NC(=O)C(CC(=O)OC(C)(C)C)NC(=O)OC(C)(C)C)C[C@H]1C (some centres undefined)
> 100 µM: EKVX NSCLC | NCI/ADR-RES ovarian | IGROV1 ovarian | U251 CNS | UACC-257 melanoma | MDA-MB-435 | SK-MEL-5 melanoma | OVCAR-5 ovarian | A498 renal | UO-31 renal | SW-620 colon | MDA-N | HOP-62 NSCLC | NCI-H460 lung | COLO 205 colon | MOLT-4 leukemia | DU-145 prostate | T-47D breast | CCRF-CEM leukemia | CAKI-1 renal | SF-295 CNS | MALME-3M melanoma | KM12 colon | K-562 leukemia | ACHN renal | OVCAR-3 ovarian | 786-0 renal | UACC-62 melanoma | NCI-H522 lung | MCF7 breast | SF-539 CNS | OVCAR-4 ovarian | SNB-75 CNS | SK-OV-3 ovarian | SF-268 CNS | NCI-H226 lung | SNB-19 CNS | HT29 colon | OVCAR-8 ovarian | HCT-15 colon | A549 NSCLC | RXF 393 renal | SN12C renal | HCT-116 colon | BT-549 breast | HS 578T breast | MDA-MB-231 breast | PC-3 prostate | SK-MEL-28 melanoma | TK-10 renal | HCC-2998 colon | SK-MEL-2 melanoma | NCI-H23 lung | M14 melanoma | RPMI-8226 leukemia | LOX IMVI melanoma

CCCCCCCCCCCCC(O)C(=O)O (centres undefined)
> 100 µM: NCI/ADR-RES ovarian | HOP-92 NSCLC | IGROV1 ovarian | U251 CNS | UACC-257 melanoma | MDA-MB-435 | SK-MEL-5 melanoma | OVCAR-5 ovarian | A498 renal | UO-31 renal | SW-620 colon | MDA-N | HOP-62 NSCLC | NCI-H460 lung | COLO 205 colon | MOLT-4 leukemia | DU-145 prostate | T-47D breast | CCRF-CEM leukemia | CAKI-1 renal | SF-295 CNS | MALME-3M melanoma | KM12 colon | K-562 leukemia | ACHN renal | OVCAR-3 ovarian | 786-0 renal | UACC-62 melanoma | NCI-H522 lung | MCF7 breast | SF-539 CNS | OVCAR-4 ovarian | SNB-75 CNS | SK-OV-3 ovarian | SNB-19 CNS | HT29 colon | OVCAR-8 ovarian | HCT-15 colon | A549 NSCLC | HL-60(TB) leukemia | SN12C renal | HCT-116 colon | BT-549 breast | HS 578T breast | MDA-MB-231 breast | PC-3 prostate | TK-10 renal | HCC-2998 colon | SK-MEL-2 melanoma | NCI-H23 lung | M14 melanoma | RPMI-8226 leukemia | LOX IMVI melanoma
